From ChEMBL document CHEMBL1143917, “Improved synthesis of histone deacetylase inhibitors (HDIs) (MS-275 and CI-994) and inhibitory effects of HDIs alone or in combination with RAMBAs or retinoids on growth of human LNCaP prostate cancer cells and tumor xenografts” (Bioorg Med Chem, 2008)

Key:
LNCaP [1] = assay: Antiproliferative activity against human LNCap by MTT assay; assay type: functional, cell-based
LNCaP [2] = assay: Cell cycle arrest in human LNCap cells assessed as accumulation at G1 phase relative to control at 1 uM; assay type: functional
LNCaP [3] = assay: Cell cycle arrest in human LNCap cells assessed as accumulation at S phase relative to control at 1 uM; assay type: functional
LNCaP [4] = assay: Cell cycle arrest in human LNCap cells assessed as accumulation at G2/M phase relative to control at 1 uM; assay type: functional
LNCaP [5] = assay: Antitumor activity against human LNCap cells xenografted SCID mouse model at 20 to 10 mg/kg/day, sc relative to control; assay type: functional; settings: route subcutaneous
LNCaP [6] = assay: Cell cycle arrest in human LNCap cells assessed as accumulation at G1 phase relative to control at 5 uM; assay type: functional
LNCaP [7] = assay: Cell cycle arrest in human LNCap cells assessed as accumulation at S phase relative to control at 5 uM; assay type: functional
LNCaP [8] = assay: Cell cycle arrest in human LNCap cells assessed as accumulation at G2/M phase relative to control at 5 uM; assay type: functional
LNCaP [9] = assay: Antitumor activity against human LNCap cells xenografted SCID mouse model at 10 to 20 mg/kg/day, sc relative to control; assay type: functional; settings: route subcutaneous

CC(=O)Nc1ccc(C(=O)Nc2ccccc2N)cc1 [TACEDINALINE]
IC50 (LNCaP [1]): 7.4 µM

O=C(CCCCCCC(=O)Nc1ccccc1)NO [VORINOSTAT]
Activity (LNCaP [2]): 81.9% | Activity (LNCaP [3]): 18.1% | Activity (LNCaP [4]): 0% | Activity (LNCaP [5]): 97.1%

Nc1ccccc1NC(=O)c1ccc(CNC(=O)OCc2cccnc2)cc1 [ENTINOSTAT]
IC50 (LNCaP [1]): 0.36 µM

CC1=C(/C=C/C(C)=C/C=C/C(C)=C/C(=O)Nc2ccc(O)cc2)C(C)(C)CCC1n1ccnc1 (stereo not given)
Activity (LNCaP [6]): 89.14% | Activity (LNCaP [7]): 10.86% | Activity (LNCaP [8]): 0% | Activity (LNCaP [9]): 81.6%
